Numbers after ± are expanded uncertainties.
Key:
[1] = 298.15 K; 101.33 kPa; Liquid; Vibrating tube method
[2] = refractive index (Na D-line) (dimensionless); conditions: 298.15 K; 101.33 kPa; Liquid; Standard Abbe refractometry

Compound	mass density [1]	refractive index [2]
CCOS(=O)(=O)[O-].CCn1cc[n+](C)c1 [1-ethyl-3-methylimidazolium ethyl sulfate]	1237.23 ± 0.43 kg/m3	1.4791 ± 0.00037
c1ccccc1 [benzene]	873.57 ± 0.1 kg/m3	1.49774 ± 0.00031
CCCCCCC [heptane]	679.56 ± 0.18 kg/m3	1.38515 ± 0.00033
CCCCCC [hexane]	655.19 ± 0.25 kg/m3	1.37234 ± 0.00037
CCCCCCCCC [nonane]	713.99 ± 0.25 kg/m3	1.40326 ± 0.00037
CCCCCCCC [octane]	698.6 ± 0.18 kg/m3	1.39519 ± 0.00033

— the NIST ThermoML archive (doi:10.1021/je1001544)
